In ChEMBL document CHEMBL3046110, “Screening and evaluation of thiourea derivatives for their HIV capsid and human cyclophilin A inhibitory activity” (Med Chem Res, 2011):

Assays:
[1] = biological target: T1, Peptidyl-prolyl cis-trans isomerase A (Homo sapiens, UniProt P62937); assay: Inhibition of Homo sapiens (human) cyclophilin A PPIase activity expressed in Escherichia coli BL21(DE3) using Suc-AAPF-pNA as substrate measured after 6 secs for 20 secs by spectrophotometric analysis
[2] = biological target: Structural capsid protein (Human immunodeficiency virus 1) (UniProt Q76129); assay: Inhibition of Human immunodeficiency virus 1 capsid protein expressed in Escherichia coli BL21(DE3) assessed as capsid assembly rate measured every 5 secs by spectrofluorometric analysis (reference value: 51.88 x 10^-5 OD/s)
Chain of Structural capsid protein (Human immunodeficiency virus 1) (Q76129 as listed by the source): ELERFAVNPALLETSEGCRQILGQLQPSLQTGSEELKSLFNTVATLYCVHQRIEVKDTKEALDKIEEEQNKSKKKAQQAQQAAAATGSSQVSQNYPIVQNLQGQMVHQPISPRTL

[3] = test system: Simian immunodeficiency virus; assay: Antiviral activity against Simian immunodeficiency virus infected CEM174 cells assessed as inhibition of virus-induced syncytium after 5 days by microscopic analysis; assay type: functional, organism-based; conditions: CEM174, 120 h
[4] = Toxicity index, ratio of TC50 for human CEM174 cells to EC50 for Simian immunodeficiency virus; assay type: cell-based; conditions: read-out: TI
[5] = Cytotoxicity against Homo sapiens (human) CEM174 by MTT assay; conditions: CEM174 cells, read-out: TC50 (the source's name)
[6] = biological target: T1, Peptidyl-prolyl cis-trans isomerase A; assay: Binding affinity to Homo sapiens (human) cyclophilin A expressed in Escherichia coli BL21(DE3) by fluorescence titration assay

T1 sequence (P62937 whole entry): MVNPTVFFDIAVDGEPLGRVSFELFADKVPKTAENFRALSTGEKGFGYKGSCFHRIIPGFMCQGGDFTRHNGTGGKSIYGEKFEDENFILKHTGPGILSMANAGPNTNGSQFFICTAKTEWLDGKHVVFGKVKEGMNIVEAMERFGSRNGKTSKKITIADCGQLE

Row | IC50 ([1]; read-out: IC50) [µM] | Kd [6] [µM] | SMILES | IC50 [1] | Activity [2] [×10⁻⁵ OD/s] | EC50 [3] [µM] | selectivity ratio [4] | CC50 [5] [µM]
1 | – | – | Cc1cccc(NC(=S)Nc2ccc3c(c2)C(=O)OC3)c1 | Not Active | 32.7 | 11.6 | 1 | –
2 | – | – | CCN(CC)c1nc(C)c([N+](=O)[O-])c(NC(=S)Nc2cccc(Cl)c2)n1 | – | 21.2 | 3.7 | 8.6 | 31.5
3 | – | – | Cc1ccc(NC(=O)NCCSCc2ccc(CN(C)C)o2)cc1Cl | – | 26.5 | – | – | –
4 | – | – | Cc1cc(NS(=O)(=O)c2ccc(NC(=S)Nc3cccc(Br)c3)cc2)no1 | – | 15.8 | 0.9 | 66 | –
5 | – | – | Cc1ccc(NC(=S)Nc2ccc3c(c2)C(=O)OC3)cc1Cl | – | 9.9 | 4.6 | 4 | –
6 | 0.92 | – | COc1ccc(NC(=S)Nc2ccc3c(c2)C(=O)OC3)cc1 | – | – | 9.7 | 20 | –
7 | 0.74 | – | O=C1OCc2ccc(NC(=S)Nc3cccc(F)c3)cc21 | – | – | 6.3 | 10 | –
8 | – | – | CCN(CC)c1nc(C)c([N+](=O)[O-])c(NC(=S)Nc2ccc(Cl)cc2)n1 | – | 48.9 | 12 | > 8.33 | > 100
9 | – | – | Cc1ccc(NS(=O)(=O)c2ccc(NC(=S)Nc3ccc(Cl)cc3)cc2)cc1 | – | 13.3 | 4.1 | 19 | 77.5
10 | – | – | Cc1cc(NS(=O)(=O)c2ccc(NC(=S)Nc3ccc(Cl)cc3)cc2)no1 | – | 14.7 | 4.1 | 9 | –
11 | – | – | O=S(=O)(Nc1nccs1)c1ccc(NC(=S)Nc2ccc(Cl)cc2)cc1 | – | – | 0.7 | 3 | –
12 | – | – | COc1ccc(NC(=S)Nc2ccc(S(=O)(=O)Nc3cc(C)on3)cc2)cc1 | – | 20.2 | 1.5 | 27 | –
13 | – | – | Cc1cc(NS(=O)(=O)c2ccc(NC(=S)Nc3ccc(C)c(Cl)c3)cc2)no1 | – | 18.4 | 0.6 | 127 | –
14 | – | – | Cc1cc(NS(=O)(=O)c2ccc(NC(=S)Nc3ccccc3C)cc2)no1 | – | – | 6.2 | 8 | –
15 | 0.81 | 79.3 | CCN(CC)c1nc(C)c([N+](=O)[O-])c(NC(=S)Nc2cccc(Br)c2)n1 | – | – | 7.4 | 3.5 | 26.2
16 | 0.74 | 73.3 | CCN(CC)c1nc(C)c([N+](=O)[O-])c(NC(=S)Nc2ccc(C)c(Cl)c2)n1 | – | – | 6.3 | > 14.1 | > 100
17 | – | – | Cc1cc(NS(=O)(=O)c2ccc(NC(=S)Nc3cccc(Cl)c3)cc2)no1 | – | 7.97 | 1 | 92 | –
18 | – | – | CCN(CC)c1nc(C)c([N+](=O)[O-])c(NC(=S)Nc2cccc(F)c2)n1 | – | 20.7 | 3.8 | > 26.3 | > 100
19 | – | 200 | CCN(CC)c1nc(C)cc(NC(=S)Nc2cccc(Br)c2)n1 | Not Active | – | 5.5 | > 1.5 | 8.4
20 | – | – | O=C1OCc2ccc(NC(=S)Nc3ccccc3)cc21 | – | 25.5 | 1.3 | 28 | 36.3

Row | SMILES | IC50 ([1]; read-out: IC50) [µM] | Kd [6] [µM] | IC50 [1] | Activity [2] [×10⁻⁵ OD/s] | EC50 [3] [µM] | selectivity ratio [4] | CC50 [5] [µM]
21 | Cc1cc(NS(=O)(=O)c2ccc(NC(=S)Nc3cccc(F)c3)cc2)no1 | 0.88 | – | – | 38.5 | 11.6 | 8 | –
